pEC50: −log10 of the molar value.
Tests used:
[1] = target: T1, Sodium- and chloride-dependent glycine transporter 1 (Homo sapiens, UniProt P48067); assay: Displacement of [3H]glycine from human GlyT1 by radiometric assay
T1 sequence (P48067 whole entry): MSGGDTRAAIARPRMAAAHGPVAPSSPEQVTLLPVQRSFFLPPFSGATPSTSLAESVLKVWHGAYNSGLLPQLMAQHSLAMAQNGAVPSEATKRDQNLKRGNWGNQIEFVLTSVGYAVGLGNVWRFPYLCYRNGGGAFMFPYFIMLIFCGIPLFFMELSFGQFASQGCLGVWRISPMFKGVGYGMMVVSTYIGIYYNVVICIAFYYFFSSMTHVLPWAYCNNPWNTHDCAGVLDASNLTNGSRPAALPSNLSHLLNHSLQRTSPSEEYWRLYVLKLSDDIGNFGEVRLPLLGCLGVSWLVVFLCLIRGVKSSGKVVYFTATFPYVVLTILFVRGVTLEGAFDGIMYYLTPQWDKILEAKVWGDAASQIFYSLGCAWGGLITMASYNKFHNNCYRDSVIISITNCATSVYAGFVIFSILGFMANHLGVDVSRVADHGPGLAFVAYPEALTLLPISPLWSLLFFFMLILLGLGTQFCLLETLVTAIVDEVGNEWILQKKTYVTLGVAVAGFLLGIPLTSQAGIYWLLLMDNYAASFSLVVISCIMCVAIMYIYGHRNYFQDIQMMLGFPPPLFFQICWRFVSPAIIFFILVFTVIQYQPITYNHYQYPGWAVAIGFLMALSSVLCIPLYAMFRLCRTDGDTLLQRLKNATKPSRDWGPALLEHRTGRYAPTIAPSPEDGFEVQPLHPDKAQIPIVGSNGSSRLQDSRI

[2] = target: T2, Sodium- and chloride-dependent glycine transporter 2 (Homo sapiens, UniProt Q9Y345); assay: Displacement of [3H]glycine from human GlyT2 by radiometric assay
T2 sequence (Q9Y345 whole entry): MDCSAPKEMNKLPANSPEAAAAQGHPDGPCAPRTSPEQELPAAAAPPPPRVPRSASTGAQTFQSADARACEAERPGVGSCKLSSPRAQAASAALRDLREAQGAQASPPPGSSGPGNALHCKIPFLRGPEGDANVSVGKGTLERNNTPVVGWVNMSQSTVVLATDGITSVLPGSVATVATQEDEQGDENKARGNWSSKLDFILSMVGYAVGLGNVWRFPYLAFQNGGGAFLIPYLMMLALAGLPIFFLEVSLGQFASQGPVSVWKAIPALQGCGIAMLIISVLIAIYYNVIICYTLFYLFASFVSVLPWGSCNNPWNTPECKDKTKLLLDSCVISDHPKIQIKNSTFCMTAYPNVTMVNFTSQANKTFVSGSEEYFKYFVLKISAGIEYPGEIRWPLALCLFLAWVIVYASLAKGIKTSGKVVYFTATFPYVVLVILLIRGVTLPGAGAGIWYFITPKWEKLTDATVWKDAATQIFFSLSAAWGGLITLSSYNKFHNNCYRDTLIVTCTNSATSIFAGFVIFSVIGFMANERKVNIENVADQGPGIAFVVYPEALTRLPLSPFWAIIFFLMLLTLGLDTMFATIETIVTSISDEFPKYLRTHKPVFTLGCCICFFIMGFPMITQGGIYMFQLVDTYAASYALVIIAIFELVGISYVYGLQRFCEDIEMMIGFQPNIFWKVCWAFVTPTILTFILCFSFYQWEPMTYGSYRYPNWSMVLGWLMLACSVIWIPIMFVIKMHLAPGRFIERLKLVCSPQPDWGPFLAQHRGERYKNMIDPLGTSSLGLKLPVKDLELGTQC

[3] = Clearance in human microsomes; assay type: ADME, Microsome; settings: human liver microsomes
[4] = Clearance in mouse microsomes; assay type: ADME, Liver, Microsome
[5] = Maximum achievable bioavailability in mouse microsomes; assay type: ADME, Liver, microsome; settings: read-out: Max Achievable Bioavailability
[6] = Maximum achievable bioavailability in human microsomes; assay type: ADME, Microsome; settings: human liver microsomes, read-out: Max Achievable Bioavailability

Compound | pEC50 [1] | pEC50 [2] | also measured
O=C1NCN(c2ccccc2)C12CCN([C@@H]1CCOC[C@@]1(O)c1ccccc1)CC2 (racemic) | 7.05 | < 4.00 | –
O=C1NCN(c2ccccc2)C12CCN([C@H]1CCCC[C@H]1c1ccccc1)CC2 (racemic) | – | – | microsomal CLint [3]: 68 µL/min/mg
O=C1NCN(c2ccccc2)C12CCN([C@@H]1CCCC[C@@]1(O)C1CCCCC1)CC2 (racemic) | 4.77 | – | –
CCCN1CNC(=O)C12CCN([C@H]1CCCC[C@H]1c1ccccc1)CC2 (racemic) | – | – | microsomal CLint [4]: 10 µL/min/mg; microsomal CLint [3]: 25 µL/min/mg
CCCN1CNC(=O)C12CCN([C@@H]1CCCC[C@@]1(O)c1ccccc1)CC2 (racemic) | 6.40 | – | Fh [5]: 81%; microsomal CLint [4]: 7 µL/min/mg; Fh [6]: 84%; microsomal CLint [3]: 5 µL/min/mg
O=C1NCN(c2ccccc2)C12CCN([C@@H]1COCC[C@@]1(O)c1ccccc1)CC2 (racemic) | 7.24 | 4.46 | –
O=C1NCN(c2ccccc2)C12CCN([C@@H]1CCCC[C@@]1(O)c1ccccc1)CC2 (racemic) | 7.36 | 4.14 | –
O=C1NCN(c2ccccc2)C12CCN([C@@H]1CCCC[C@@]1(O)c1ccncc1)CC2 (racemic) | 7.21 | < 4.00 | –
O=C1NCN(c2ccccc2)C12CCN([C@@H]1CCCC[C@@]1(O)Cc1ccccc1)CC2 (racemic) | 5.36 | – | –
C[C@]1(O)CCCC[C@H]1N1CCC2(CC1)C(=O)NCN2c1ccccc1 (racemic) | 5.05 | – | –
COc1cccc([C@]2(O)CCCC[C@H]2N2CCC3(CC2)C(=O)NCN3c2ccccc2)c1 (racemic) | 6.89 | 4.39 | –
O=C1NCN(c2ccccc2)C12CCN([C@@H]1CCCC[C@@]1(O)c1ccc(Cl)c(Cl)c1)CC2 (racemic) | 6.76 | 5.22 | –
O=C1NCN(c2ccccc2)C12CCN([C@@H]1CCCC[C@@]1(O)c1ccc(F)cc1)CC2 (relative stereo) | 7.40 | 4.24 | –
Cc1ccc([C@]2(O)CCCC[C@H]2N2CCC3(CC2)C(=O)NCN3c2ccccc2)cc1 (racemic) | 6.85 | 4.60 | –
O=C1NCN(c2ccccc2)C12CCN([C@@H]1CCCC[C@@]1(O)c1cccc(Cl)c1)CC2 (racemic) | 6.89 | 4.68 | –
O=C1NCN(c2ccc(F)cc2)C12CCN([C@@H]1CCCC[C@@]1(O)c1ccc(Cl)cc1)CC2 (racemic) | 7.62 | 4.72 | –
O=C1NCN(c2ccccc2)C12CCN([C@@H]1CCCC[C@@]1(O)c1ccc(Cl)cc1)CC2 (racemic) | 7.10 | 4.80 | –
O=C1NCN(c2ccc(Cl)cc2)C12CCN([C@@H]1CCCC[C@@]1(O)c1ccc(F)cc1)CC2 (racemic) | 7.82 | 5.60 | –
O=C1NCN(c2ccccc2)C12CCN([C@@H]1CCCC[C@@]1(O)c1cccnc1)CC2 (racemic) | 6.96 | – | –
O=C1NCN(c2ccccc2)C12CCN([C@@H]1CCCC[C@@]1(O)c1ccccn1)CC2 (racemic) | 6.89 | < 4.00 | –
CC(C)(C)[C@]1(O)CCCC[C@H]1N1CCC2(CC1)C(=O)NCN2c1ccccc1 (racemic) | 4.54 | – | –
O=C1NCN(c2ccccc2)C12CCN([C@H]1CCCC[C@@]1(O)c1ccccc1)CC2 (racemic) | 7.25 | 4.59 | –
COc1ccc(N2CNC(=O)C23CCN([C@@H]2CCCC[C@@]2(O)c2ccc(Cl)cc2)CC3)cc1 (racemic) | 7.00 | 4.60 | –
CC(C)[C@]1(O)CCCC[C@H]1N1CCC2(CC1)C(=O)NCN2c1ccccc1 (mixture of isomers) | < 5.52 | – | –
COc1ccc([C@]2(O)CCCC[C@H]2N2CCC3(CC2)C(=O)NCN3c2ccccc2)cc1 (racemic) | 6.58 | 4.17 | –
Cc1ccccc1[C@]1(O)CCCC[C@H]1N1CCC2(CC1)C(=O)NCN2c1ccccc1 (racemic) | 7.30 | 4.15 | –
O=C1NCN(c2ccc(F)cc2)C12CCN([C@@H]1CCCC[C@@]1(O)c1ccc(F)cc1)CC2 (racemic) | 7.62 | 4.44 | microsomal CLint [4]: 102 µL/min/mg; microsomal CLint [3]: 92 µL/min/mg

From ChEMBL document CHEMBL1147765, “Discovery of N-(2-hydroxy-2-aryl-cyclohexyl) substituted spiropiperidines as GlyT1 antagonists with improved pharmacological profile” (Bioorg Med Chem Lett, 2006)
